Reference: patent publication US20140315933A1, “CHEMICAL COMPOUNDS” (Pfizer Limited, priority 2013, published 2014)
pIC50: −log10 of the molar value. Counter-ions that a name gives are not always drawn.

What follows are compounds tested against T1, URAT-1 transporter (Homo sapiens, UniProt Q96S37) (assay: URAT-1 inhibitor activity: [14C]-uric acid uptake into CHO-URAT1(L)GFP#8 (CHO#8) cells, scintillation proximity). Conditions: not given.
T1 construct: expressed in transfected cells
Format: cell-based
From the text: The nucleotide sequence for the long isoform of URAT1 (NM_144585) was C-terminally fused to that of enhanced green fluorescent protein (eGFP) (hereinafter referred to as URAT1(L)GFP). The combined sequence was codon-optimised and custom synthesized. The synthesized sequence was generated in pDONR221 Gateway entry vector (Invitrogen Life Technologies) prior to cloning in pLenti6.3/V5 Gateway destination vector (Invitrogen Life Technologies).
Lentiviral particles were generated according to ViraPower HiPerform expression system procedure (Invitrogen Life Technologies) and used to transduce CHO cells. Blasticidin selection enabled the generation of a stable clonal pool of cells, confirmed by expression of GFP and V5 epitope. The clonal pools were sorted using fluorescence-activated cell sorting (FACS) on the basis of GFP expression with the gating set at the top 50% of expression into single cells which were subsequently expanded to generate clonal lines. […] This cell line was used for all screening activities and is referred to as CHO-URAT1(L)GFP#8 or CHO#8.
The potency of the compounds of formula (I) as inhibitors of the URAT-1 transporter was determined as follows.
CHO#8 cells were cultured in cell line maintenance flasks in medium consisting of Dulbecco's modified Eagle medium (DMEM) with high glucose and sodium pyruvate (4.5 g of glucose per litre, Invitrogen Life Technologies), supplemented with heat-inactivated foetal bovine serum (FBC, 10% v/v), 1×NEAA (non-essential amino acids) and blasticidin (10 μg/ml). Cultures were grown in 175 cm^2 tissue culture flasks in a humidified incubator at approximately 37° C. in approximately 95% air/5% CO2. Near confluent CHO#8 cell cultures were harvested by trypsinisation, re-suspended in culture medium and the process was repeated once or twice weekly to provide sufficient cells for use.
Assay ready flasks were generated by the same method, except the cells were not cultured in blasticidin.
Assay ready frozen cells were generated by freezing 40,000,000 cells in 1 ml of FBS (without blasticidin) containing 10% DMSO per vial. One vial was sufficient for 5 assay plates. Each vial was thawed rapidly to 37° C., washed and re-suspended in pre-warmed culture medium for seeding onto assay plates.
CHO#8 cells were seeded onto Cytostar™ 96-well plates at a density of […]. The cells were cultured for 1 day at approximately 37° C. in a humidified incubator containing approximately 5% CO2 in air. After approximately 24 hours culture, cells were used for uptake experiments.
On the day of assay, culture medium was removed from the wells and the cells were washed once with 50 μL of chloride-containing buffer (136.7 mM NaCl, 5.36 mM KCl, 0.952 mM CaCl2, 0.441 mM KH2PO4, 0.812 mM MgSO4, 5.6 mM D-glucose, 0.383 mM Na2HPO4.2H2O, 10 mM HEPES, pH 7.4 with NaOH). The cells were pre-incubated with another 50 μL of chloride-containing buffer for one hour at approximately 37° C. in a humidified incubator containing approximately 5% CO2 in air.
Assay compound plates were prepared by diluting the compounds of formula (I) with chloride-free buffer (125 mM Na-gluconate, 4.8 mM K-gluconate, 1.3 mM Ca-gluconate, 1.2 mM KH2PO4, 1.2 mM MgSO4, 5.6 mM D-glucose, 25 mM HEPES, pH 7.4 with NaOH) in 100% DMSO to a final concentration of 1% DMSO. [^14C]-Uric Uric acid working stock was made by addition of radiolabeled compound to a final concentration of 120 nM in chloride-free buffer. In all wells, the final assay concentration of solvent (DMSO) was 0.25%; the final assay concentration of [^14C]-uric acid was 30 nM in chloride-free buffer and the final compound of formula (I) concentrations ranged from 0 to 10 μM.
After pre-incubation, cells were washed with 50 μL of chloride-free buffer and another 50 μL of chloride-free buffer was added. […]

Compared with `N#Cc1cc(S(=O)(=O)Nc2ncns2)ccc1Oc1ccc(Cl)cc1OC(F)(F)F` [Example 32, 4-[4-chloro-2-(trifluoromethoxy)phenoxy]-3-cyano-N-(1,2,4-thiadiazol-5-yl)benzenesulfonamide diethylamine salt], `N#Cc1cc(S(=O)(=O)Nc2ncns2)ccc1Oc1ccc(Cl)cc1Cl` [Example 16, 3-cyano-4-(4,6-dichlorophenoxy)-N-(1,2,4-thiadiazol-5-yl)benzenesulfonamide] is 0.36 log units higher in pIC50: 6.01 for the first, 6.37 for the second.

`N#Cc1cc(S(=O)(=O)Nc2ncc(F)s2)ccc1Oc1ccc(F)c(F)c1F` [Example 121, 3-cyano-N-(5-fluoro-1,3-thiazol-2-yl)-4-(2,3,4-trifluorophenoxy)benzenesulfonamide] and `Cc1ccc(Oc2ccc(S(=O)(=O)Nc3ncc(F)s3)cc2C#N)c(F)c1F` [Example 120, 3-cyano-4-(2,3-difluoro-4-methylphenoxy)-N-(5-fluoro-1,3-thiazol-2-yl)benzenesulfonamide] are within 0.2 log units of each other in pIC50: 5.98 for the first, 5.88 for the second.

`CC(C)c1ccc(Oc2ccc(S(=O)(=O)Nc3ncc(F)s3)cc2C#N)cc1` [Example 103, 3-cyano-N-(5-fluoro-1,3-thiazol-2-yl)-4-[4-(propan-2-yl)phenoxy]benzenesulfonamide] and `CCc1ccc(Oc2ccc(S(=O)(=O)Nc3ncc(F)s3)cc2C#N)cc1` [Example 95, 3-cyano-4-(4-ethylphenoxy)-N-(5-fluoro-1,3-thiazol-2-yl)benzenesulfonamide] cannot be ordered by pIC50: < 5.17 for the first, < 5.13 for the second.

Going from `O=S(=O)(Nc1cscn1)c1cc(Cl)c(Oc2cc(Cl)ccc2OC(F)F)cc1F` [Example 158, 5-chloro-4-[5-chloro-2-(difluoromethoxy)phenoxy]-2-fluoro-N-(1,3-thiazol-4-yl)benzenesulfonamide] to `N#Cc1cc(Oc2cc(F)c(S(=O)(=O)Nc3cscn3)cc2F)ccc1F` [compound 221], the pIC50 falls from 5.49 to < 5.00. The first is the more potent here.

`COc1cc(C#N)c(F)cc1Oc1cc(F)c(S(=O)(=O)Nc2nncs2)cc1Cl` [compound 316] and `COc1cc(C#N)ccc1Oc1cc(F)c(S(=O)(=O)Nc2nncs2)cc1Cl` [compound 296] cannot be ordered by pIC50: < 5.00 for the first, < 5.00 for the second.

Compared with `CSc1ncccc1Oc1ccc(S(=O)(=O)Nc2ncns2)cc1C#N` [compound 254, trifluoroacetic acid salt], `Cc1cc(Cl)ccc1Oc1ccc(S(=O)(=O)Nc2ncns2)cc1C#N` [Example 42, 4-(4-chloro-2-methylphenoxy)-3-cyano-N-(1,2,4-thiadiazol-5-yl)benzenesulfonamide] is lower in pIC50: 6.06 for the first, < 5.51 for the second.

`N#Cc1cc(S(=O)(=O)Nc2ncc(F)s2)ccc1Oc1cc(C(F)(F)F)ccc1F` [Example 134, 3-cyano-N-(5-fluoro-1,3-thiazol-2-yl)-4-[2-fluoro-5-(trifluoromethyl)phenoxy]benzenesulfonamide] and `N#Cc1cc(S(=O)(=O)Nc2ncc(F)s2)ccc1Oc1cc(C(F)(F)F)ccc1Cl` [Example 136, 4-[2-chloro-5-(trifluoromethyl)phenoxy]-3-cyano-N-(5-fluoro-1,3-thiazol-2-yl)benzenesulfonamide] are within 0.2 log units of each other in pIC50: 6.14 for the first, 6.33 for the second.

First: N#Cc1cc(S(=O)(=O)Nc2nccs2)ccc1Oc1cccc(CCO)c1 [compound 175]
Second: CCc1cccc(Oc2ccc(S(=O)(=O)Nc3ncc(F)s3)cc2C#N)c1 [Example 99, 3-cyano-4-(3-ethylphenoxy)-N-(5-fluoro-1,3-thiazol-2-yl)benzenesulfonamide]
The pIC50 of the first is lower: < 5.26 for the first, 5.79 for the second.

`N#Cc1ccc(Oc2ccc(S(=O)(=O)Nc3cscn3)c(F)c2)cc1Cl` [compound 225] and `N#Cc1ccc(Oc2ccc(S(=O)(=O)Nc3ncc(F)s3)cc2C#N)cc1Cl` [Example 244, 4-(3-chloro-4-cyanophenoxy)-3-cyano-N-(5-fluoro-1,3-thiazol-2-yl)benzenesulfonamide] are within 0.2 log units of each other in pIC50: 6.52 for the first, 6.44 for the second.

Compared with `COc1ccccc1Oc1cc(F)c(S(=O)(=O)Nc2nncs2)cc1Cl` [compound 305], `COc1cccc(Oc2cc(F)c(S(=O)(=O)Nc3nncs3)cc2Cl)c1C` [compound 323] is higher in pIC50: < 5.24 for the first, 5.66 for the second. The second is the more potent here.

First: O=S(=O)(Nc1nccs1)c1ccc(Oc2ccc(F)c(F)c2)c(F)c1 [compound 226]
Second: Cc1ccc(Cl)cc1Oc1ccc(S(=O)(=O)Nc2ncc(F)s2)cc1C#N [Example 129, 4-(5-chloro-2-methylphenoxy)-3-cyano-N-(5-fluoro-1,3-thiazol-2-yl)benzenesulfonamide]
The pIC50 of the first is lower: < 5.00 for the first, 6.32 for the second.

Compared with `COc1cccc(C)c1Oc1cc(F)c(S(=O)(=O)Nc2nncs2)cc1Cl` [compound 321], `COc1ccc(Oc2cc(F)c(S(=O)(=O)Nc3nncs3)cc2Cl)c(Cl)c1` [compound 317] is 0.77 log units lower in pIC50: 6.56 for the first, 5.79 for the second.

First: O=S(=O)(Nc1nncs1)c1cc(Cl)c(Oc2cccc(Cl)c2)cc1F [compound 330]
Second: CC(C)c1ncccc1Oc1cc(F)c(S(=O)(=O)Nc2nncs2)cc1Cl [compound 298]
The pIC50 of the first is 0.26 log units higher: 5.62 for the first, 5.36 for the second. The first is the more potent here.

First: COc1cc(F)c(F)cc1Oc1ccc(S(=O)(=O)Nc2ncns2)cc1C#N [compound 270]
Second: COc1cc(C)ccc1Oc1ccc(S(=O)(=O)Nc2ncns2)cc1C#N [compound 285]
The pIC50 of the first is 0.77 log units higher: 6.02 for the first, 5.25 for the second. The first is the more potent here.

First: COc1cc(C)cc(Oc2ccc(S(=O)(=O)Nc3ncns3)cc2C#N)c1 [compound 292]
Second: COc1cccc(Oc2ccc(S(=O)(=O)Nc3ncns3)cc2C#N)c1C [compound 293]
The pIC50 of the first is higher: 5.95 for the first, < 5.21 for the second. The first is the more potent here.

Going from `N#Cc1cc(S(=O)(=O)Nc2ncc(F)s2)ccc1Oc1ccc(CCO)cc1` [Example 146, 3-cyano-N-(5-fluoro-1,3-thiazol-2-yl)-4-[4-(2-hydroxyethyl)phenoxy]benzenesulfonamide] to `CCc1ccccc1Oc1ccc(S(=O)(=O)Nc2ncc(F)s2)cc1C#N` [Example 108, 3-cyano-4-(2-ethylphenoxy)-N-(5-fluoro-1,3-thiazol-2-yl)benzenesulfonamide], the pIC50 rises from < 5.00 to 6.46. The second is the more potent here.

First: N#Cc1cc(S(=O)(=O)Nc2nncs2)ccc1Oc1cnc(OC2CCC2)c(Cl)c1 [Example 336]
Second: Cc1cc(Oc2ccc(S(=O)(=O)Nc3nncs3)cc2C#N)cc(C)c1C#N [Example 337, 3-cyano-4-(4-cyano-3,5-dimethylphenoxy)-N-(1,3,4-thiadiazol-2-yl)benzenesulfonamide]
The pIC50 of the first is 1.54 log units lower: 5.41 for the first, 6.95 for the second.

Going from `N#Cc1cc(S(=O)(=O)Nc2ncc(F)s2)ccc1Oc1cc(C(F)(F)F)cc(C(F)(F)F)c1` [Example 138, 4-[3,5-bis(trifluoromethyl)phenoxy]-3-cyano-N-(5-fluoro-1,3-thiazol-2-yl)benzenesulfonamide] to `N#Cc1cc(S(=O)(=O)Nc2ncc(F)s2)ccc1Oc1cccc(Cl)c1F` [Example 119, 4-(3-chloro-2-fluorophenoxy)-3-cyano-N-(5-fluoro-1,3-thiazol-2-yl)benzenesulfonamide], the pIC50 rises from 5.46 to 5.80 (0.34 log units).

Compared with `N#Cc1ccc(Oc2c(F)cc(S(=O)(=O)Nc3ncns3)cc2F)cc1Cl` [compound 215], `Cc1ccc(Oc2ccc(S(=O)(=O)Nc3ncc(F)s3)cc2C#N)c(C)c1` [Example 101, 3-cyano-4-(2,4-dimethylphenoxy)-N-(5-fluoro-1,3-thiazol-2-yl)benzenesulfonamide] is higher in pIC50: < 5.00 for the first, 5.75 for the second. The second is the more potent here.

Same assay, conditions: inhibition of [14C]-uric acid (30 nM) uptake into CHO#8 cells; compound 0 to 10 μM; 4 parameter logistic fit

“5-chloro-4-(3,4-difluorophenoxy)-2-fluoro-N-(1,3-thiazol-4-yl)benzenesulfonamide [compound 230]” showed a pIC50 of 6.13.
